Format: physicochemical
Excerpt: In this manner, by use of solid polymer inclusions, optimum active substance loadings can be attained in different polymers. The active substance concentrations in the polymer inclusions can be stabilized at a very high level so that only minimum amounts of additional solvent are needed. In cases where the solubility of the drug in the adhesive is the primary factor limiting skin permeation, the method of preparation described under B) must be chosen.
When such solid active substance inclusions are introduced into adhesive matrix solutions in dissolved form, the high solubility of the inclusion polymer in the matrix solvent used, for example ethyl acetate, ethanol etc, is important. Rapid dissolution of the amorphous active substance is attained to a level far above its saturation solubility in the pure solvent. For example, at room temperature ethyl acetate dissolves only about 3 wt. % of a gestagenic steroid. By use of a corresponding solid active substance solution, the solubility of the steroid in the solution of ethyl acetate and nonadhesive polymer was increased to nearly 15 wt. % and kept stable. It should be kept in mind in this respect that, based on the volatile solvent ethyl acetate which is to be driven off from the adhesive matrix that is to be dried, the solubility was increased to more than 30 wt. %. […]

solubility in ethyl acetate: 3%
SMILES: C#C[C@]1(O)C=C[C@H]2[C@@H]3CCC4=CC(=O)CC[C@@H]4[C@H]3CC[C@@]21CC [gestodene]
